The values below are quoted from earlier work in patent publication US6660296B2, “Sustained-release microgranules containing diltiazem as active principle” (Laboratories des Produits Ethiques Ethypharim, priority 1995, dated 2003).

Each structure is given as a SMILES string.

The conditions of this data set: neutral or basic pH; Diltiazem or its pharmaceutically acceptable salts.

For `COc1ccc([C@@H]2Sc3ccccc3N(CCN(C)C)C(=O)[C@@H]2OC(C)=O)cc1` [Diltiazem], the Solubility entry is “sparingly soluble”.
